Patent US20250313569A1, “Pharmaceutical Compounds And Compositions As Modulators Of MAS-Related G-Protein Receptor X2” (Enanta Pharmaceuticals, Inc., priority 2024, published 2025)

How the values were obtained:
human MRGPRX2 = molecular target: T1, human MRGPRX2 (Homo sapiens, UniProt Q96LB1); assay: MRGPRX2 IP-1 Gq HTRF assay in HEK293 cells stably expressing human MRGPRX2, Cortistatin-14 at EC75; format: cell-based; conditions: 2 hours at 37° C., cellular IP-1
T1 construct: expressed in transfected cells; host or cells: HEK293
T1 sequence (Q96LB1 1-330): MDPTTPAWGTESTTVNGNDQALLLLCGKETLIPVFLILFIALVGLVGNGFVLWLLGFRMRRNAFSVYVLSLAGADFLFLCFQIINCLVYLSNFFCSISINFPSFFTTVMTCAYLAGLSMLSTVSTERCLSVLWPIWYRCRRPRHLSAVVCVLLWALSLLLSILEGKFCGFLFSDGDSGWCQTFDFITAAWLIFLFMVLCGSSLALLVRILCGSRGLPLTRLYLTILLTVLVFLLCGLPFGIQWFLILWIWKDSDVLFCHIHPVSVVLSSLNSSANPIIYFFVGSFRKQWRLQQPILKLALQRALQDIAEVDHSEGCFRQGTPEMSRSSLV
Description: HEK293 cells stably expressing human MRGPRX2 were grown in Dulbecco's Modified Eagle Medium (DMEM) supplemented with 10% fetal bovine serum (FBS), 1% Glutamax, and 1 μg/mL of puromycin. Cells were maintained in a 37° C., 5% CO2 humidified incubator.
Cells were plated in a 384-well assay plate at a density of 20,000 cells per well overnight. Compounds were solubilized at 10 mM in DMSO and added as a 10-point curve using an ECHO acoustic liquid handler. On the day of the assay, Cortistatin-14 was diluted in assay buffer (provided by IP-One-Gq-HTRF kit purchased from Cisbio, 62IPAPEJ) and added to the assay plate at a final concentration corresponding to the predetermined EC75. Plates were incubated at 37° C. for 2 hours prior to addition of HTRF detection reagents per the manufacturer's instructions. The plates were read on a Perkin Elmer Envision plate reader. The HTRF ratio and cellular IP-1 levels were calculated. XLfit was used to calculate an EC50 value for each compound using a 4-parameter logistic curve fitting model. EC50 ranges are reported as follows: A<100 nM; B 0.1-1 μM; C>1 μM.

MRGPRX2 LAD2 = molecular target: T2, MRGPRX2 LAD2 (Homo sapiens, UniProt Q96LB1); assay: LAD2 β-hexosaminidase release assay (degranulation), Cortistatin-14 at EC75; format: cell-based; conditions: LAD2 cells; 1 hour compound incubation, Cortistatin-14 at EC75 for 30 minutes; percent degranulation (β-hexosaminidase)
T2 construct: host or cells: LAD2 human mast cells
T2 sequence (Q96LB1 1-330): T1 sequence (Q96LB1 1-330)
Description: LAD2 cells obtained from the NIH were cultured in StemPro34 (Gibco) serum-free media supplemented with GlutaMax, penicillin and streptomycin, and 100 ng/mL SCF (Invitrogen). Cells were maintained in a 37° C., 5% CO2 humidified incubator at a concentration of 2-5E5 cells/mL, with hemidepletion once a week.
One day prior to the assay, cells were starved of SCF at a concentration of 2.3E5 cells/mL. On the day of the assay cells were washed twice in Tyrode's Buffer containing 0.04% BSA (assay buffer) and plated in a 96 well-v-bottom assay plate at 20,000 cells per well in 80 μL of assay buffer. Compounds were solubilized at 10 mM DMSO and added as a 10-fold overconcentrated 8-point curve in assay buffer in a volume of 10 μL using the JANUS liquid handler. Assay plates were incubated for 1 hour at 37° C. Cortistatin-14 was diluted in assay buffer to […] its predetermined EC75 and added to the assay plates in a volume of 10 μL. Assay plates were incubated at 37° C. for 30 minutes. After incubation, cells were pelleted and 50 μL of supernatant from each well was transferred to a 96 well flat bottom plate containing 100 μL of substrate solution (3.5 mg/mL p-Nitrophenyl-N-acetyl-β-D-glucosaminide (Sigma Aldrich) in 40 mM Citrate Buffer (Thermo Fisher)). The remaining cell pellets were lysed with 150 μL of 0.1% Triton-X-100 and mixed thoroughly. 50 μL of lysate was transferred to a 96-well flat bottom plate containing 100 μL of substrate solution. Plates with supernatants and lysates were incubated at 37° C. for 90 minutes prior to addition of 50 μL of 400 mM Glycine buffer (pH 10.7). The plates were read on a Perkin Elmer Envision plate reader at an Abs of 405 nanometers. Percent degranulation was calculated and Xlfit was used to calculate an EC50 value for each compound using a 4-parameter logistic curve fitting model. EC50 ranges are reported as follows: A<100 nM; B 0.1-1 μM; C>1 μM.

| Structure (SMILES) | EC50 (human MRGPRX2) | EC50 (MRGPRX2 LAD2) |
| --- | --- | --- |
| CC(=O)N1C[C@@H](NC(=O)c2cccc(NS(C)(=O)=O)c2)C[C@@H](Nc2cc(C(F)(F)F)nc3ccc(Cl)cc23)C1 [Example 2] | < 100 nM | < 100 nM |
| CS(=O)(=O)Nc1cccc(C(=O)N[C@H]2C[C@@H](Nc3cc(C(F)(F)F)nc4ccc(Cl)cc34)CN(C(=O)C(F)(F)F)C2)c1 [Example 8] | 100 to 1000 nM | < 100 nM |
| COC(=O)N1C[C@@H](NC(=O)c2cccc(NS(C)(=O)=O)c2)C[C@@H](Nc2cc(C(F)(F)F)nc3ccc(Cl)cc23)C1 [Example 5] | < 100 nM | < 100 nM |
| CN(C)C(=O)N1C[C@@H](NC(=O)c2cccc(NS(C)(=O)=O)c2)C[C@@H](Nc2cc(C(F)(F)F)nc3ccc(Cl)cc23)C1 [Example 10] | 100 to 1000 nM | < 100 nM |
| CS(=O)(=O)Nc1cccc(C(=O)N[C@H]2C[C@@H](Nc3cc(C(F)(F)F)nc4ccc(Cl)cc34)CN(S(C)(=O)=O)C2)c1 [Example 3] | 100 to 1000 nM | < 100 nM |
| COc1ccc(C(=O)N[C@H]2C[C@@H](Nc3cc(C(F)(F)F)nc4ccc(Cl)cc34)CN(C(C)=O)C2)cc1 [Example 25] | < 100 nM | < 100 nM |
| CS(=O)(=O)Nc1cccc(C(=O)N[C@H]2CC(Nc3cc(C(F)(F)F)nc4ccc(Cl)cc34)CN(C(=O)C3CC3)C2)c1 (stereo partly shown) [Example 16] | 100 to 1000 nM | – |
| CC(=O)N1C[C@@H](NC(=O)c2cnn(C)c2)C[C@@H](Nc2cc(C(F)(F)F)nc3ccc(Cl)cc23)C1 [Example 30] | < 100 nM | < 100 nM |
| CS(=O)(=O)Nc1cccc(C(=O)N[C@H]2C[C@@H](Nc3cc(C(F)(F)F)nc4ccc(Cl)cc34)CN(C(=O)c3ccccc3)C2)c1 [Example 1] | 100 to 1000 nM | < 100 nM |
| CC(=O)N1C[C@@H](NC(=O)c2cnn(CC(F)(F)F)c2)C[C@@H](Nc2cc(C(F)(F)F)nc3ccc(Cl)cc23)C1 [Example 29] | < 100 nM | < 100 nM |
| CC(=O)N1C[C@@H](NC(=O)c2cnn(C3CC3)c2)C[C@@H](Nc2cc(C(F)(F)F)nc3ccc(Cl)cc23)C1 [Example 32] | 100 to 1000 nM | 100 to 1000 nM |
| CC(=O)N1C[C@@H](NC(=O)c2cccc(C#N)c2)C[C@@H](Nc2cc(C(F)(F)F)nc3ccc(Cl)cc23)C1 [Example 24] | < 100 nM | < 100 nM |
| CNC(=O)N1C[C@@H](NC(=O)c2cccc(NS(C)(=O)=O)c2)C[C@@H](Nc2cc(C(F)(F)F)nc3ccc(Cl)cc23)C1 [Example 9] | 100 to 1000 nM | 100 to 1000 nM |
| CNCC(=O)N1C[C@@H](NC(=O)c2cccc(NS(C)(=O)=O)c2)C[C@@H](Nc2cc(C(F)(F)F)nc3ccc(Cl)cc23)C1 [Example 12] | 100 to 1000 nM | – |
| CC(=O)N1C[C@@H](NC(=O)c2cccc(S(C)(=O)=O)c2)C[C@@H](Nc2cc(C(F)(F)F)nc3ccc(Cl)cc23)C1 [Example 28] | < 100 nM | – |
| CC(C)(C)C(=O)N1C[C@@H](NC(=O)c2cccc(NS(C)(=O)=O)c2)C[C@@H](Nc2cc(C(F)(F)F)nc3ccc(Cl)cc23)C1 (racemic) [Example 15] | 100 to 1000 nM | – |
| CC(=O)N1CC(Nc2cc(C(F)(F)F)nc3ccccc23)C[C@H](NC(=O)c2cccc(NS(C)(=O)=O)c2)C1 (stereo partly shown) [Example 22] | 100 to 1000 nM | – |
| CC(=O)N1CC(Nc2cc(C(F)(F)F)nc3ccc(F)cc23)C[C@H](NC(=O)c2cccc(NS(C)(=O)=O)c2)C1 (stereo partly shown) [Example 21] | < 100 nM | – |
| CCn1cc(C(=O)N[C@H]2C[C@@H](Nc3cc(C(F)(F)F)nc4ccc(Cl)cc34)CN(C(C)=O)C2)cn1 [Example 31] | < 100 nM | – |
| CS(=O)(=O)Nc1cccc(C(=O)N[C@H]2CC(Nc3cc(C(F)(F)F)nc4ccc(Cl)cc34)CN(C(=O)C3CCC3)C2)c1 (stereo partly shown) [Example 17] | 100 to 1000 nM | – |
| CC(=O)N1C[C@@H](NC(=O)c2ccc(F)c(F)c2)C[C@@H](Nc2cc(C(F)(F)F)nc3ccc(Cl)cc23)C1 [Example 26] | 100 to 1000 nM | – |
| CS(=O)(=O)Nc1cccc(C(=O)N[C@H]2C[C@@H](Nc3cc(C(F)(F)F)nc4ccc(Cl)cc34)CN(S(=O)(=O)c3ccccc3)C2)c1 [Example 4] | 100 to 1000 nM | < 100 nM |

Second part, the molecule after the results:

| EC50 (human MRGPRX2) | EC50 (MRGPRX2 LAD2) | Structure (SMILES) |
| --- | --- | --- |
| 100 to 1000 nM | < 100 nM | CC(=O)N1C[C@@H](NC(=O)c2cccc(C(C)(C)O)c2)C[C@@H](Nc2cc(C(F)(F)F)nc3ccc(Cl)cc23)C1 [Example 41] |
| < 100 nM | < 100 nM | CS(=O)(=O)Nc1cccc(C(=O)N[C@@H]2COC[C@H](Nc3cc(C(F)(F)F)nc4ccc(Cl)cc34)C2)c1 (racemic) [Example 44, N-(cis-5-((6-chloro-2-(trifluoromethyl)quinolin-4-yl)amino)tetrahydro-2H-pyran-3-yl)-3-(methylsulfonamido)benzamide] |
| < 100 nM | < 100 nM | CC(=O)N1C[C@@H](NC(=O)c2cccc(C(F)F)c2)C[C@@H](Nc2cc(C(F)(F)F)nc3ccc(Cl)cc23)C1 [Example 42] |
| < 100 nM | – | CC(=O)N1C[C@@H](NC(=O)c2cnn(C3CCCCC3)c2)C[C@@H](Nc2cc(C(F)(F)F)nc3ccc(Cl)cc23)C1 [Example 68] |
| > 1000 nM | – | CN1C[C@@H](NC(=O)c2cccc(NS(C)(=O)=O)c2)C[C@@H](Nc2cc(C(F)(F)F)nc3ccccc23)C1 [Example 51] |
| 100 to 1000 nM | – | CC(=O)N1C[C@@H](NC(=O)c2cnn(-c3ccc(F)cc3)c2)C[C@@H](Nc2cc(C(F)(F)F)nc3ccc(Cl)cc23)C1 [Example 70] |
| < 100 nM | – | COc1cc(C(=O)N[C@H]2C[C@@H](Nc3cc(C(F)(F)F)nc4ccc(Cl)cc34)CN(C(C)=O)C2)cc2cn(C(F)F)nc12 [Example 56] |
| < 100 nM | – | CC(=O)N1C[C@@H](NC(=O)c2cnn(C(F)F)c2)C[C@@H](Nc2cc(C(F)(F)F)nc3ccc(Cl)cc23)C1 [Example 40] |
| 100 to 1000 nM | – | CC(=O)N1C[C@@H](NC(=O)c2ccc(OC(F)(F)F)cc2)C[C@@H](Nc2cc(C(F)(F)F)nc3ccc(Cl)cc23)C1 [Example 66] |
| 100 to 1000 nM | – | COc1cc(C(=O)N[C@H]2C[C@@H](Nc3cc(C(F)(F)F)nc4ccc(Cl)cc34)CN(C(C)=O)C2)ccc1OC1CC1 [Example 60] |
| 100 to 1000 nM | < 100 nM | CC(=O)N1C[C@@H](NC(=O)c2cccc(NS(=O)(=O)C(F)(F)F)c2)C[C@@H](Nc2cc(C(F)(F)F)nc3ccc(Cl)cc23)C1 [Example 43] |
| < 100 nM | – | CS(=O)(=O)Nc1cccc(NC(=O)[C@@H]2COC[C@H](Nc3cc(C(F)(F)F)nc4ccc(Cl)cc34)C2)c1 [Example 53] |
| < 100 nM | – | CC(=O)N1C[C@@H](NC(=O)c2cccc(F)c2)C[C@@H](Nc2cc(C(F)(F)F)nc3ccc(Cl)cc23)C1 [Example 36] |
| 100 to 1000 nM | – | CC(=O)N1C[C@@H](NC(=O)c2cc(F)cc(F)c2)C[C@@H](Nc2cc(C(F)(F)F)nc3ccc(Cl)cc23)C1 [Example 37] |
| 100 to 1000 nM | – | CC(=O)N1C[C@@H](NC(=O)c2ccc(C)nc2)C[C@@H](Nc2cc(C(F)(F)F)nc3ccc(Cl)cc23)C1 [Example 62] |
| > 1000 nM | – | CN1C[C@@H](NC(=O)c2cccc(NS(C)(=O)=O)c2)C[C@@H](N(C)c2cc(C(F)(F)F)nc3ccccc23)C1 [Example 52] |
